Measured values taken from paper PMC4697807, “Novel Zn^2+ Modulated GPR39 Receptor Agonists Do Not Drive Acute Insulin Secretion in Rodents” (PLoS ONE, 2015).
Read-outs that look alike come from different tables or passages of the source.

How the values were obtained:
Type in all cases: cell-based
GPR39 (NIT-1 cells) = target: T1, GPR39 (NIT-1 cells) (Mus musculus, UniProt Q5U431); assay: IP1 assay in NIT-1 cells endogenously expressing GPR39; conditions: for Emax: read-out: Emax relative to the 100% efficacy reference AZ1395
T1 construct: NIT-1 cells endogenously expressing GPR39; endogenous in cells; host or cells: NIT-1 (ATCC CRL-2055)
T1 sequence (Q5U431 1-456): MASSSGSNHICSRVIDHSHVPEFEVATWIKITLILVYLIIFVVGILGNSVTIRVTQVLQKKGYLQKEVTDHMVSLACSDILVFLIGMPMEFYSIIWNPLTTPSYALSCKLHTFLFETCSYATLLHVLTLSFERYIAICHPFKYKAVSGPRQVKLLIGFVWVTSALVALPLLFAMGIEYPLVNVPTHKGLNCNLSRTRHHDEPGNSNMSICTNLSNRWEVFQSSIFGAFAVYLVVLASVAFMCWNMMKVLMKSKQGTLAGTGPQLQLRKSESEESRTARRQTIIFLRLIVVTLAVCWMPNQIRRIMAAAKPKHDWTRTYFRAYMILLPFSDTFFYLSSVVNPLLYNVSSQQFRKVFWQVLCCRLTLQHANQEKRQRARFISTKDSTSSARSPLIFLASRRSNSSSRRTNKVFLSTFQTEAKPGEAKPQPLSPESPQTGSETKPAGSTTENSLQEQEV
Description: (§1) Full length human (AF034633), rat (DM091294) and mouse (BC085285) GPR39 (GeneArt–Life Technologies, Carlsbad, CA) were subcloned into the pIRESneo3 vector (Clontech, Mountain View, CA). The resulting expression vectors hGPR39-, rGPR39- and mGPR39-pIRESneo3 were transfected into HEK293s cells (ATCC CRL-1573) using Lipofectamine 2000 (Life Technologies). Individual clones were isolated using flow cytometry with a FACSVantage SE DIVA (Becton Dickinson, Franklin Lakes, NJ) and clones were chosen based on responses to Zn^2+ measured in a cAMP assay (see below). […] HEK293s-derived cell lines were cultured at 37°C, 10% CO2 and 95% humidity in DMEM supplemented with 10% FBS and 600 μg/ml Geneticin (Life Technologies). The mouse pancreas epithelial cell line NIT-1 (ATCC CRL-2055) with endogenous expression of GPR39 was cultured at 37°C, 5% CO2, and 95% humidity in Ham´s F12 (Life Technologies) supplemented with 10% FBS.
(§2) IP1 assays were performed using IP-One Tb kits (CisBio). IP1 production was detected by HTRF as described above. Buffers and reagents were according to manufacturers’ protocols except LiCl concentrations in stimulation buffer which were 50 mM in assays employing HEK293s-hGPR39 cells and 20 mM in assays using NIT-1 cells. For assays using HEK293s-hGPR39 cells, 12,500 cells per well were dispensed into small-volume 384-well plates (Greiner) and IP1 production was stimulated in the presence of compounds for 30 min at 37 °C in a total volume of 20 μl. For assays using NIT-1 cells, 25,000 cells per well were seeded into poly-D-lysine coated 384-well plates (Becton-Dickinson) and cultured in Ham´s F12 medium with 10% FBS. After 48 h, cells were washed with stimulation buffer and IP1 production stimulated in the presence of compounds for 45 min at 37 °C in a total volume of 60 μl.
(§3) Concentration response data were fitted with a four parameter logistic fit using Eq 1, y=A+((B−A)/1+((C/x)^D))) (1) where A is no activation, B is full activation, C is the EC50 and D is the Hill slope.

GPR39 [1] = target: T2, GPR39 (Homo sapiens, UniProt O43194); assay: cAMP assay (HTRF), HEK293s-hGPR39 cells; design: Full length human (AF034633), rat (DM091294) and mouse (BC085285) GPR39; expressed in transfected cells; host or cells: HEK293s (ATCC CRL-1573), pIRESneo3 vector, selected clones; conditions: for Efficacy at 33 μM: AZ1395 100% reference
T2 sequence (O43194 1-453): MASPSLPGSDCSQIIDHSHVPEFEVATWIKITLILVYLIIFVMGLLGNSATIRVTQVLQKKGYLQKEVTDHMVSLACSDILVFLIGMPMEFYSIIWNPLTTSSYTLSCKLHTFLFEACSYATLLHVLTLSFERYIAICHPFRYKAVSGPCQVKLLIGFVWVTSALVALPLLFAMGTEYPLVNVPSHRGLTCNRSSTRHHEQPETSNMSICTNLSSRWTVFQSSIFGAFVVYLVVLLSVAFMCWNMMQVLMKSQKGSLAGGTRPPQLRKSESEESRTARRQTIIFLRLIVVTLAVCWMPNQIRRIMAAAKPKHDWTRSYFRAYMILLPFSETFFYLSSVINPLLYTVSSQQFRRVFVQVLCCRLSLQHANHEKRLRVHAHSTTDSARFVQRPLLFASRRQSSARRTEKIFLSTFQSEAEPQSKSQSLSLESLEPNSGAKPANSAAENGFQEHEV
Description: as §1
Measurements of cAMP production were performed using homogeneous time resolved fluorescence (HTRF) cAMP dynamic kits (CisBio, Codolet, France). All buffers and reagents were according to manufacturer’s protocol. In short, 0.1 μl of compounds in DMSO were added to small-volume 384-well plates (Greiner, Frickenhausen, Germany). 12,000 (5 μl) cells in Hank’s balanced salt solution (HBSS) (Life Technologies) and 20 mM HEPES (pH7.4; Life Technologies) were added per well. The production of cAMP was stimulated for 75 min at 37°C by addition of 5 μl 3-isobutyl-1-methylxanthine (0.375 mM final concentration; Sigma-Aldrich, St Louis, MO) and ZnCl2 (0 to 30 μM; Sigma). The reaction was stopped by addition of 5 μl cAMP-d2 and 5 μl anti-cAMP cryptate. The cAMP production was detected by HTRF (λex = 340 nm, λem = 665 and 615 nm) using a Pherastar (BMG Labtech, Ortenberg, Germany).
as §3

GPR39 [2] = target: T2, GPR39; assay: IP1 assay (HTRF), HEK293s-hGPR39 cells; design: Full length human (AF034633), rat (DM091294) and mouse (BC085285) GPR39; expressed in transfected cells; host or cells: HEK293s (ATCC CRL-1573), pIRESneo3 vector, selected clones; conditions: for Efficacy at 33 μM: AZ1395 100% reference
Description: as §1, §2, §3

[3] = absence (w/o) of Zn^2+, read-out: EC50
[4] = presence of 5 μM Zn^2+, read-out: EC50
[5] = presence of 5 μM Zn^2+, read-out: pEC50 ± SD (converted)
[6] = Zn^2+ by itself, read-out: EC50

`N#Cc1ccc(OCCn2ccnc2)c(OCCn2ccnc2)c1` [AZ1395, 3,4-bis-(2-imidazol-1-ylethoxy)-benzonitrile] was tested. Which “Efficacy at 33 μM” value (GPR39 (NIT-1 cells); absence (w/o) of Zn^2+) did it give?
The value was 0%.

And the EC50 (GPR39 (NIT-1 cells); [3])?
The EC50 was greater than 33000 nM.

And the “Efficacy at 33 μM” value (GPR39 (NIT-1 cells); presence of 5 μM Zn^2+)?
Its value is 100%.

What about the EC50 (GPR39 (NIT-1 cells); [4]) of the same compound?
Its EC50 is greater than 33000 nM.

And the “Efficacy at 33 μM” value (GPR39 [1]; absence (w/o) of Zn^2+)?
The value was 81%.

What about the EC50 (GPR39 [1]; [3]) of the same compound?
The EC50 was greater than 33000 nM.

And the EC50 (GPR39 [1]; [4])?
Its EC50 is 490 nM.

And the EC50 (GPR39 [2]; absence (w/o) of Zn^2+, read-out: pEC50 ± SD (converted))?
The EC50 was 2880 nM.

And the EC50 (GPR39 [2]; [5])?
Its EC50 is 19.1 nM.

What does the source list for `Cc1nc2c(C(=O)O)cnn2c(O)c1Cc1ccc(Cl)cc1` [AZ4237, 6-[(4-chlorophenyl)methyl]-7-hydroxy-5-methyl-pyrazolo[1,5-a]pyrimidine-3-carboxylic acid]?
Efficacy at 33 μM (GPR39 (NIT-1 cells); absence (w/o) of Zn^2+): 8%; EC50 (GPR39 (NIT-1 cells); [3]): > 33000 nM; Emax (GPR39 (NIT-1 cells); presence of 5 μM Zn^2+): 50%; EC50 (GPR39 (NIT-1 cells); [5]): 240 nM; Efficacy at 33 μM (GPR39 [1]; absence (w/o) of Zn^2+): 49%; EC50 (GPR39 [1]; [3]): > 33000 nM; EC50 (GPR39 [1]; [5]): 389 nM; Efficacy at 33 μM (GPR39 [2]; absence (w/o) of Zn^2+): 66%; EC50 (GPR39 [2]; [3]): > 33000 nM; EC50 (GPR39 [2]; [5]): 33.9 nM

Which results are given for `Cc1nc(-c2nc3c(c(=O)[nH]2)CN(C(=O)c2cccc(Cl)c2F)CC3)cs1` [AZ7914, 6-(3-chloro-2-fluoro-benzoyl)-2-(2-methylthiazol-4-yl)-3,5,7,8-tetrahydropyrido-[4,3-d]pyrimidin-4-one]?
Efficacy at 33 μM (GPR39 (NIT-1 cells); absence (w/o) of Zn^2+): 9%; EC50 (GPR39 (NIT-1 cells); [3]): > 33000 nM; EC50 (GPR39 (NIT-1 cells); [4]): 650 nM; Emax (GPR39 (NIT-1 cells); presence of 5 μM Zn^2+): 47%; Efficacy at 33 μM (GPR39 [1]; absence (w/o) of Zn^2+): 21%; EC50 (GPR39 [1]; [3]): > 33000 nM; EC50 (GPR39 [1]; [5]): 2290 nM; Efficacy at 33 μM (GPR39 [2]; absence (w/o) of Zn^2+): 45%; EC50 (GPR39 [2]; [3]): > 33000 nM; EC50 (GPR39 [2]; [4]): 74 nM

For `[Zn+2]` [Zn^2+], which “Efficacy at 33 μM” value (GPR39 (NIT-1 cells); Zn^2+ by itself) is on record?
The value was 0%.

And the agonistic effects (GPR39 (NIT-1 cells); Zn^2+ by itself)?
Its agonistic effects is “no agonistic effects”.

What about the EC50 (GPR39 (NIT-1 cells); [6]) of the same compound?
The EC50 was greater than 33000 nM.

What about the “pEC50 ± SD” value (GPR39 [1]; Zn^2+ by itself) of the same compound?
The value was “(4.92 ± 0.13)”.

What about the EC50 (GPR39 [1]; [6]) of the same compound?
Its EC50 is 12000 nM.

And the “pEC50 ± SD” value (GPR39 [2]; Zn^2+ by itself)?
Its value is “(4.63 ± 0.08)”.

What about the EC50 (GPR39 [2]; [6]) of the same compound?
Its EC50 is 24000 nM.
